# Measurements: US20250171457A1, “NITROGEN-CONTAINING HETEROCYCLIC COMPOUND HAVING NRF2 ACTIVATION EFFECT” (CHUGAI SEIYAKU KABUSHIKI KAISHA, priority 2022, published 2025)
# pEC50: −log10 of the molar value.
# System: Nrf2 transcriptional activity (pARE-Luc reporter) in HepG2 cells
# Test: In vitro Nrf2 transcriptional activity measurement by ARE-dependent reporter assay in HepG2 cell
# Type: cell-based, human
# Settings: Homo sapiens; HepG2 cells transfected with pARE-Luc, 4 hours at 37° C.; luciferase activity of Example 1-54 or Example 17-23 at 3.75 μM defined as 100%
# How it was run: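 Luminescence readout (Bright-Glo) after 4 h, 37° C compound exposure of HepG2 cells carrying the ARE-luciferase vector pGL4.37. Each well converted to % response versus reference compound at 3.75 μM, and EC50 derived from dose-response curves.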
row,Structure (SMILES),pEC50
1,"O=C(O)c1cc(F)c(-c2cccc3c2OCN(C(=O)c2c(Cl)cc(N4CCC5(CCOCC5)C4)cc2Cl)C3)cc1N1CCOCC1 [Compound 4-26, 4-[3-[2,6-Dichloro-4-(8-oxa-2-azaspiro[4.5]decan-2-yl)benzoyl]-2,4-dihydro-1,3-benzoxazin-8-yl]-5-fluoro-2-morpholin-4-ylbenzoic acid]",8.09
2,"O=C(O)c1cc(F)c(-c2cccc3c2OCN(C(=O)c2c(Cl)cc(N4CCC(CO)CC4)cc2Cl)C3)cc1N1CCOCC1 [Compound 4-27, 4-[3-[2,6-Dichloro-4-[4-(hydroxymethyl)piperidin-1-yl]benzoyl]-2,4-dihydro-1,3-benzoxazin-8-yl]-5-fluoro-2-morpholin-4-ylbenzoic acid]",8.96
3,"O=C(O)c1cc(F)c(-c2cccc3c2OCN(C(=O)c2c(Cl)cc(N4CC[C@@H](O)C4)cc2Cl)C3)cc1N1CCOCC1 [Compound 4-28, 4-[3-[2,6-Dichloro-4-[(3R)-3-hydroxypyrrolidin-1-yl]benzoyl]-2,4-dihydro-1,3-benzoxazin-8-yl]-5-fluoro-2-morpholin-4-ylbenzoic acid]",8.80
4,"CC(C)(C)OC(=O)N1CCN(c2cc(Cl)c(C(=O)N3COc4c(cccc4-c4cc(N5CCOCC5)c(C(=O)O)cc4F)C3)c(Cl)c2)CC1 [Compound 4-29, 4-[3-[2,6-Dichloro-4-[4-[(2-methylpropan-2-yl)oxycarbonyl]piperazin-1-yl]benzoyl]-2,4-dihydro-1,3-benzoxazin-8-yl]-5-fluoro-2-morpholin-4-ylbenzoic acid]",8.68
5,"COCC1CN(c2cc(Cl)c(C(=O)N3COc4c(cccc4-c4cc(N5CCOCC5)c(C(=O)O)cc4F)C3)c(Cl)c2)CCN1C (stereo not drawn) [Compound 4-30, 4-[3-[2,6-Dichloro-4-[3-(methoxymethyl)-4-methylpiperazin-1-yl]benzoyl]-2,4-dihydro-1,3-benzoxazin-8-yl]-5-fluoro-2-morpholin-4-ylbenzoic acid]",8.96
6,"CN1CCN(c2cc(Cl)c(C(=O)N3COc4c(cccc4-c4cc(N5CCOCC5)c(C(=O)O)cc4F)C3)c(Cl)c2)CC12CC2 [Compound 4-31, 4-[3-[2,6-Dichloro-4-(4-methyl-4,7-diazaspiro[2.5]octan-7-yl)benzoyl]-2,4-dihydro-1,3-benzoxazin-8-yl]-5-fluoro-2-morpholin-4-ylbenzoic acid]",8.92
7,"Cc1cc(-c2cccc3c2OCN(C(=O)c2c(Cl)cc(N4CCOCC4)cc2Cl)C3)cc(N2CCOCC2)c1C(=O)O [Compound 4-32, 4-[3-(2,6-Dichloro-4-morpholin-4-ylbenzoyl)-2,4-dihydro-1,3-benzoxazin-8-yl]-2-methyl-6-morpholin-4-ylbenzoic acid]",8.16
8,"O=C(O)c1cc(F)c(-c2cccc3c2OCN(C(=O)c2ccc(N4CC5(COC5)C4)cc2Cl)C3)cc1N1CCOCC1 [Compound 4-33, 4-[3-[2-Chloro-4-(2-oxa-6-azaspiro[3.3]heptan-6-yl)benzoyl]-2,4-dihydro-1,3-benzoxazin-8-yl]-5-fluoro-2-morpholin-4-ylbenzoic acid]",8.29
9,"O=C(O)c1cc(F)c(-c2cccc3c2OCN(C(=O)c2c(Cl)cc(OC[C@H]4CCCO4)cc2Cl)C3)cc1N1C2CCC1COC2 [Compound 4-34, 4-[3-[2,6-Dichloro-4-[[(2R)-oxolan-2-yl]methoxy]benzoyl]-2,4-dihydro-1,3-benzoxazin-8-yl]-5-fluoro-2-(3-oxa-8-azabicyclo[3.2.1]octan-8-yl)benzoic acid]",8.42
10,"CC(C)(O)CCOc1cc(Cl)c(C(=O)N2COc3c(cccc3-c3cc(N4C5CCC4COC5)c(C(=O)O)cc3F)C2)c(Cl)c1 [Compound 4-35, 4-[3-[2,6-Dichloro-4-(3-hydroxy-3-methylbutoxy)benzoyl]-2,4-dihydro-1,3-benzoxazin-8-yl]-5-fluoro-2-(3-oxa-8-azabicyclo[3.2.1]octan-8-yl)benzoic acid]",7.70
11,"O=C(O)c1cc(F)c(-c2cccc3c2OCN(C(=O)c2c(Cl)cc(OC[C@H]4CCOC4)cc2Cl)C3)cc1N1C2CCC1COC2 [Compound 4-38, 4-[3-[2,6-Dichloro-4-[[(3S)-oxolan-3-yl]methoxy]benzoyl]-2,4-dihydro-1,3-benzoxazin-8-yl]-5-fluoro-2-(3-oxa-8-azabicyclo[3.2.1]octan-8-yl)benzoic acid]",8.29
12,"CCOc1cc(Cl)c(C(=O)N2COc3c(cccc3-c3cc(N4C5CCC4COC5)c(C(=O)O)cc3F)C2)c(Cl)c1 [Compound 4-39, 4-[3-(2,6-Dichloro-4-ethoxybenzoyl)-2,4-dihydro-1,3-benzoxazin-8-yl]-5-fluoro-2-(3-oxa-8-azabicyclo[3.2.1]octan-8-yl)benzoic acid]",8.16
13,"COc1cc(Cl)c(C(=O)N2COc3c(cccc3-c3cc(N4C5CCC4COC5)c(C(=O)O)cc3F)C2)c(Cl)c1 [Compound 4-40, 4-[3-(2,6-Dichloro-4-methoxybenzoyl)-2,4-dihydro-1,3-benzoxazin-8-yl]-5-fluoro-2-(3-oxa-8-azabicyclo[3.2.1]octan-8-yl)benzoic acid]",8.05
14,"O=C(O)c1cc(F)c(-c2cccc3c2OCN(C(=O)c2c(Cl)cc(OCC4CCOCC4)cc2Cl)C3)cc1N1C2CCC1COC2 [Compound 4-41, 4-[3-[2,6-Dichloro-4-(oxan-4-ylmethoxy)benzoyl]-2,4-dihydro-1,3-benzoxazin-8-yl]-5-fluoro-2-(3-oxa-8-azabicyclo[3.2.1]octan-8-yl)benzoic acid]",8.33
15,"O=C(O)c1cc(F)c(-c2cccc3c2OCN(C(=O)c2c(Cl)cc(OC[C@@H]4COCCO4)cc2Cl)C3)cc1N1C2CCC1COC2 [Compound 4-42, 4-[3-[2,6-Dichloro-4-[[(2S)-1,4-dioxan-2-yl]methoxy]benzoyl]-2,4-dihydro-1,3-benzoxazin-8-yl]-5-fluoro-2-(3-oxa-8-azabicyclo[3.2.1]octan-8-yl)benzoic acid]",8.36
16,"O=C(O)c1ccc(-c2cccc3c2OCN(C(=O)c2c(Cl)cc(OCCCCO)cc2Cl)C3)cc1N1CCOCC1 [Compound 4-43, 4-[3-[2,6-Dichloro-4-(4-hydroxybutoxy)benzoyl]-2,4-dihydro-1,3-benoxazin-8-yl]-2-morpholin-4-ylbenzoic acid]",8.13
17,"CN(C)CCOc1cc(Cl)c(C(=O)N2COc3c(cccc3-c3ccc(C(=O)O)c(N4CCOCC4)c3)C2)c(Cl)c1 [Compound 4-44, 4-[3-[2,6-Dichloro-4-[2-(dimethylamino)ethoxy]benzoyl]-2,4-dihydro-1,3-benzoxazin-8-yl]-2-morpholin-4-ylbenzoic acid]",7.80
18,"CC(C)(O)CCOc1cc(Cl)c(C(=O)N2COc3c(cccc3-c3ccc(C(=O)O)c(N4CCOCC4)c3)C2)c(Cl)c1 [Compound 4-45, 4-[3-[2,6-Dichloro-4-(3-hydroxy-3-methylbutoxy)benzoyl]-2,4-dihydro-1,3-benzoxazin-8-yl]-2-morpholin-4-ylbenzoic acid]",8.00
19,"Cn1cc(Oc2cc(Cl)c(C(=O)N3COc4c(cccc4-c4cc(N5CCOCC5)c(C(=O)O)cc4F)C3)c(Cl)c2)cn1 [Compound 4-46, 4-[3-[2,6-Dichloro-4-(1-methylpyrazol-4-yl)oxybenzoyl]-2,4-dihydro-1,3-benzoxazin-8-yl]-5-fluoro-2-morpholin-4-ylbenzoic acid]",7.85
20,"COCCN1CCC(Oc2cc(Cl)c(C(=O)N3COc4c(cccc4-c4cc(N5CCOCC5)c(C(=O)O)cc4F)C3)c(Cl)c2)CC1 [Compound 4-47, 4-[3-[2,6-Dichloro-4-[1-(2-methoxyethyl)piperidin-4-yl]oxybenzoyl]-2,4-dihydro-1,3-benzoxazin-8-yl]-5-fluoro-2-morpholin-4-ylbenzoic acid]",8.48
21,"CN1CCC(COc2cc(Cl)c(C(=O)N3COc4c(cccc4-c4cc(N5CCOCC5)c(C(=O)O)cc4F)C3)c(Cl)c2)CC1 [Compound 4-48, 4-[3-[2,6-Dichloro-4-[(1-methylpiperidin-4-yl)methoxy]benzoyl]-2,4-dihydro-1,3-benzoxazin-8-yl]-5-fluoro-2-morpholin-4-ylbenzoic acid]",8.59
22,"O=C(O)c1cc(F)c(-c2cccc3c2OCN(C(=O)c2c(Cl)cc(OCCCN4CCOCC4)cc2Cl)C3)cc1N1CCOCC1 [Compound 4-49, 4-[3-[2,6-Dichloro-4-(3-morpholin-4-ylpropoxy)benzoyl]-2,4-dihydro-1,3-benzoxazin-8-yl]-5-fluoro-2-morpholin-4-ylbenzoic acid]",8.92
23,"CN1CC[C@@H](Oc2cc(Cl)c(C(=O)N3COc4c(cccc4-c4cc(N5CCOCC5)c(C(=O)O)cc4F)C3)c(Cl)c2)C1 [Compound 4-50, 4-[3-[2,6-Dichloro-4-[(3R)-1-methylpyrrolidin-3-yl]oxybenzoyl]-2,4-dihydro-1,3-benzoxazin-8-yl]-5-fluoro-2-morpholin-4-ylbenzoic acid]",8.55
24,"O=C(O)c1cc(F)c(-c2cccc3c2OCN(C(=O)c2c(Cl)cc(OCCCCO)cc2Cl)C3)cc1N1CCOCC1 [Compound 4-51, 4-[3-[2,6-Dichloro-4-(4-hydroxybutoxy)benzoyl]-2,4-dihydro-1,3-benzoxazin-8-yl]-5-fluoro-2-morpholin-4-ylbenzoic acid]",8.59
25,"CN1CCC(Oc2cc(Cl)c(C(=O)N3COc4c(cccc4-c4cc(N5CCOCC5)c(C(=O)O)cc4F)C3)c(Cl)c2)CC1 [Compound 4-52, 4-[3-[2,6-Dichloro-4-(1-methylpiperidin-4-yl)oxybenzoyl]-2,4-dihydro-1,3-benzoxazin-8-yl]-5-fluoro-2-morpholin-4-ylbenzoic acid]",8.96
26,"CN1CCCC(Oc2cc(Cl)c(C(=O)N3COc4c(cccc4-c4cc(N5CCOCC5)c(C(=O)O)cc4F)C3)c(Cl)c2)C1 (stereo not drawn) [Compound 4-53, 4-[3-[2,6-Dichloro-4-(1-methylpiperidin-3-yl)oxybenzoyl]-2,4-dihydro-1,3-benzoxazin-8-yl]-5-fluoro-2-morpholin-4-ylbenzoic acid]",8.54
27,"CCOc1cc(Cl)c(C(=O)N2COc3c(cccc3-c3cc(N4CCOCC4)c(C(=O)O)cc3F)C2)cc1OC [Compound 4-54, 4-[3-(2-Chloro-4-ethoxy-5-methoxybenzoyl)-2,4-dihydro-1,3-benzoxazin-8-yl]-5-fluoro-2-morpholin-4-ylbenzoic acid]",8.92
